Test results from patent US12403137B2, “Compounds and methods of use” (Tango Therapeutics, Inc., priority 2019, dated 2025).

Assays:
PRMT5 [1] = target: T1, PRMT5 (Homo sapiens, UniProt O14744); experiment: PRMT5 inhibition assay with SAM as cofactor; assay type: biochemical; conditions: against PRMT5 in the presence of SAM as cofactor
T1 construct: purchased Viva (custom protein)
Source text: (§1) The Ki values can be calculated from the IC50 values as described in the Examples section. As detailed in the Examples section, for the assay performed in the presence of SAM, IC50=Ki×1.5 (Ki=IC50/1.5). For the assay performed in the presence of MTA, IC50=Ki×13.5 (Ki=IC50/13.5). Column 6 indicates the ratio between the Ki of compounds in the presence of SAM and the Ki of compounds in the presence of MTA

[2] = test system: HAP1 MTAP-intact cell line; experiment: SDMA in-cell western assay, HAP1 MTAP-intact; assay type: cell-based; conditions: Homo sapiens
Procedure, shortened: (§2)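 Symmetric dimethylarginine (SDMA) levels were measured by in-cell western in an isogenic HAP1 pair. One line expresses endogenous MTAP and the other is MTAP-null, with an IC50 derived in each.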

PRMT5 [3] = target: T1, PRMT5; experiment: PRMT5 inhibition assay with MTA as cofactor; assay type: biochemical; conditions: for IC50: against PRMT5 with MTA as cofactor; for SAM/MTA Ratio: ratio of Ki in the presence of SAM to Ki in the presence of MTA, Ki=IC50/1.5 (SAM), Ki=IC50/13.5 (MTA)
Source text: as §1

PRMT5 [4] = target: T1, PRMT5; experiment: PRMT5 inhibition assay with no cofactor; assay type: biochemical; conditions: against PRMT5 with no cofactor; read-out: No Co-factor IC50
[5] = test system: HAP1 MTAP-deleted cell line; experiment: SDMA in-cell western assay, HAP1 MTAP-deleted; assay type: cell-based; conditions: for IC50: Homo sapiens, HAP1 MTAP-deleted (MTAP-null) cell line; for MTAP Intact/Deleted Ratio: IC50 ratio HAP1 MTAP-intact / HAP1 MTAP-deleted, >=3 fold considered MTAP-selective
Procedure, shortened: as §2

T1 sequence (O14744 whole entry): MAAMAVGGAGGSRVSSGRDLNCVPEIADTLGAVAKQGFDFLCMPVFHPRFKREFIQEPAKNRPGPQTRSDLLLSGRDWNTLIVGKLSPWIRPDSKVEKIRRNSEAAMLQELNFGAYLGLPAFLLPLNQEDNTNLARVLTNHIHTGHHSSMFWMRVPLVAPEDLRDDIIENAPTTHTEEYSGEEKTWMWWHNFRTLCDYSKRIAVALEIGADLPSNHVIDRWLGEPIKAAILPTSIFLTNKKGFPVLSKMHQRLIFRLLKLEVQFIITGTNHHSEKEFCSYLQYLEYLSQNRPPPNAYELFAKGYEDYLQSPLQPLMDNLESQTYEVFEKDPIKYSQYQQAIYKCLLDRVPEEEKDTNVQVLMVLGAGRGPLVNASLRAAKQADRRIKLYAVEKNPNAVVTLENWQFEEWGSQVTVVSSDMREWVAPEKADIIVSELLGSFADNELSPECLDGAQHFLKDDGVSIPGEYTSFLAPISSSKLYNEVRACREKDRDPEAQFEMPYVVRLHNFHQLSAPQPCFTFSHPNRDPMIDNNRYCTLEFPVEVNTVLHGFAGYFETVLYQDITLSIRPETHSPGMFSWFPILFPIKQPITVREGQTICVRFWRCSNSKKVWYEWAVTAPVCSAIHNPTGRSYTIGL
T1 sequence (Q9BQA1 whole entry partner): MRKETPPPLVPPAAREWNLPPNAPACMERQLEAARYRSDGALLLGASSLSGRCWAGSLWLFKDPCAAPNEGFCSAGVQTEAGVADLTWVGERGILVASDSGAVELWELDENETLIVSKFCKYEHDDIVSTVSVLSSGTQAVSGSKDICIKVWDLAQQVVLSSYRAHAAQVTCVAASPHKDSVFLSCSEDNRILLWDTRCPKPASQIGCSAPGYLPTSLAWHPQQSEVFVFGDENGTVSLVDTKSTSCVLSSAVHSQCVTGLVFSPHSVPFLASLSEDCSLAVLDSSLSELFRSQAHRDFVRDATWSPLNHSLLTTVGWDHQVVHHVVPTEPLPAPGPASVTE

| SMILES | IC50 (PRMT5 [1]) | IC50 [2] | IC50 (PRMT5 [3]) | IC50 (PRMT5 [4]) | IC50 [5] | SAM/MTA Ratio (PRMT5 [3]) | MTAP Intact/Deleted Ratio [5] |
| --- | --- | --- | --- | --- | --- | --- | --- |
| Cn1nccc1COc1ccc2c(c1)CN[C@H]([C@H](O)CNC(=O)c1ccc(C(=O)N3[C@@H]4CCC[C@H]3COC4)cc1)C2 [Compound 9, 4-((1R,5S)-3-oxa-9-azabicyclo[3.3.1]nonane-9-carbonyl)-N—((R)-2-hydroxy-2-((S)-7-((1-methyl-1H-pyrazol-5-yl)methoxy)-1,2,3,4-tetrahydroisoquinolin-3-yl)ethyl)benzamide] | 50 to 500 nM | ≥ 10 µM | 50 to 500 nM | 500 to 5000 nM | 1000 to 10000 nM | A (a Ki ratio greater than or equal to 10 fold between the Ki in the presence of SAM and the Ki in the presence of MTA) | B* (an IC50 ratio greater than or equal to 3 fold but lower than 10 fold between the IC50 in the HAP1 MTAP-intact cell line and the HAP1 MTAP-deleted cell line) |
| CCOc1cc(C(=O)N2[C@@H]3CCC[C@H]2COC3)ccc1C(=O)NC[C@@H](O)[C@@H]1Cc2ccc(OCc3ocnc3C)cc2CN1 [Compound 10, 4-((1R,5S)-3-oxa-9-azabicyclo[3.3.1]nonane-9-carbonyl)-2-ethoxy-N—((R)-2-hydroxy-2-((S)-7-((4-methyloxazol-5-yl)methoxy)-1,2,3,4-tetrahydroisoquinolin-3-yl)ethyl)benzamide] | 50 to 500 nM | 1 to 10 µM | < 50 nM | 50 to 500 nM | < 1000 nM | A (a Ki ratio greater than or equal to 10 fold between the Ki in the presence of SAM and the Ki in the presence of MTA) | A* (an IC50 ratio greater than or equal to 10 fold between the IC50 in the HAP1 MTAP-intact cell line and the HAP1 MTAP-deleted cell line) |
| CC(=O)N1CCC(Nc2cc(C(=O)NC[C@@H](O)[C@@H]3Cc4ccc(OCc5ocnc5C)cc4CN3)cc(N3CCN(C)CC3)n2)CC1 [Compound 54, 2-[(1-acetyl-4-piperidyl)amino]-N-[(2R)-2-hydroxy-2-[(3S)-7-[(4-methyloxazol-5-yl)methoxy]-1,2,3,4-tetrahydroisoquinolin-3-yl]ethyl]-6-(4-methylpiperazin-1-yl)pyridine-4-carboxamide] | 50 to 500 nM | ≥ 10 µM | < 50 nM | 50 to 500 nM | 1000 to 10000 nM | A (a Ki ratio greater than or equal to 10 fold between the Ki in the presence of SAM and the Ki in the presence of MTA) | C* (an IC50 ratio of less than 3 fold between the IC50 in the HAP1 MTAP-intact cell line and the HAP1 MTAP-deleted cell line) |
| CC(=O)N1CCC(Nc2cc(C(=O)NC[C@@H](O)[C@@H]3Cc4ccc(OCc5ocnc5C)cc4CN3)cc(N3CCCCC3)c2)CC1 [Compound 60, 3-[(1-acetyl-4-piperidyl)amino]-N-[(2R)-2-hydroxy-2-[(3S)-7-[(4-methyloxazol-5-yl)methoxy]-1,2,3,4-tetrahydroisoquinolin-3-yl]ethyl]-5-(1-piperidyl)benzamide] | 50 to 500 nM | ≥ 10 µM | < 50 nM | 50 to 500 nM | 1000 to 10000 nM | A (a Ki ratio greater than or equal to 10 fold between the Ki in the presence of SAM and the Ki in the presence of MTA) | C* (an IC50 ratio of less than 3 fold between the IC50 in the HAP1 MTAP-intact cell line and the HAP1 MTAP-deleted cell line) |

Continued, in another order:

| IC50 (PRMT5 [1]) | IC50 [2] | IC50 (PRMT5 [3]) | IC50 (PRMT5 [4]) | IC50 [5] | SMILES | SAM/MTA Ratio (PRMT5 [3]) | MTAP Intact/Deleted Ratio [5] |
| --- | --- | --- | --- | --- | --- | --- | --- |
| 50 to 500 nM | 1 to 10 µM | < 50 nM | 50 to 500 nM | < 1000 nM | CC(=O)N1CCN(c2cc(C(=O)NC[C@@H](O)[C@@H]3Cc4ccc(OCc5ocnc5C)cc4CN3)cc(NC3CCC3)n2)CC1 [Compound 29, 2-(4-acetylpiperazin-1-yl)-6-(cyclobutylamino)-N—((R)-2-hydroxy-2-((S)-7-((4-methyloxazol-5-yl)methoxy)-1,2,3,4-tetrahydroisoquinolin-3-yl)ethyl)isonicotinamide] | A (a Ki ratio greater than or equal to 10 fold between the Ki in the presence of SAM and the Ki in the presence of MTA) | A* (an IC50 ratio greater than or equal to 10 fold between the IC50 in the HAP1 MTAP-intact cell line and the HAP1 MTAP-deleted cell line) |
| 50 to 500 nM | ≥ 10 µM | 50 to 500 nM | 50 to 500 nM | < 1000 nM | CCN(C)c1cc(C(=O)NC[C@@H](O)[C@@H]2Cc3ccc(OCc4ocnc4C)cc3CN2)cc(NC2CCC2)n1 [Compound 24, 2-(cyclobutylamino)-6-(ethyl(methyl)amino)-N—((R)-2-hydroxy-2-((S)-7-((4-methyloxazol-5-yl)methoxy)-1,2,3,4-tetrahydroisoquinolin-3-yl)ethyl)isonicotinamide] | A (a Ki ratio greater than or equal to 10 fold between the Ki in the presence of SAM and the Ki in the presence of MTA) | A* (an IC50 ratio greater than or equal to 10 fold between the IC50 in the HAP1 MTAP-intact cell line and the HAP1 MTAP-deleted cell line) |
| 50 to 500 nM | ≥ 10 µM | < 50 nM | 50 to 500 nM | ≥ 10000 nM | Cc1ncoc1COc1ccc2c(c1)CN[C@H]([C@H](O)CNC(=O)c1cc(NC3CCC3)nc(N3CCN(C(C)C)CC3)c1)C2 [Compound 30, 2-(cyclobutylamino)-N—((R)-2-hydroxy-2-((S)-7-((4-methyloxazol-5-yl)methoxy)-1,2,3,4-tetrahydroisoquinolin-3-yl)ethyl)-6-(4-isopropylpiperazin-1-yl)isonicotinamide] | A (a Ki ratio greater than or equal to 10 fold between the Ki in the presence of SAM and the Ki in the presence of MTA) | C* (an IC50 ratio of less than 3 fold between the IC50 in the HAP1 MTAP-intact cell line and the HAP1 MTAP-deleted cell line) |
| 50 to 500 nM | ≥ 10 µM | 50 to 500 nM | 50 to 500 nM | 1000 to 10000 nM | O=C(NC[C@@H](O)[C@@H]1Cc2ccc(OCc3cn[nH]c3)cc2CN1)c1ccc(C(=O)N2CCOCC2)cc1 [Compound 4, N—((R)-2-((S)-7-((1H-pyrazol-4-yl)methoxy)-1,2,3,4-tetrahydroisoquinolin-3-yl)-2-hydroxyethyl)-4-(morpholine-4-carbonyl)benzamide] | A (a Ki ratio greater than or equal to 10 fold between the Ki in the presence of SAM and the Ki in the presence of MTA) | C* (an IC50 ratio of less than 3 fold between the IC50 in the HAP1 MTAP-intact cell line and the HAP1 MTAP-deleted cell line) |
| 50 to 500 nM | 1 to 10 µM | < 50 nM | 50 to 500 nM | < 1000 nM | CCC(=O)N1CCN(c2cc(C(=O)NC[C@@H](O)[C@@H]3Cc4ccc(OCc5ocnc5C)cc4CN3)cc(NC3CCC3)n2)CC1 [Compound 39, 2-(cyclobutylamino)-N—((R)-2-hydroxy-2-((S)-7-((4-methyloxazol-5-yl)methoxy)-1,2,3,4-tetrahydroisoquinolin-3-yl)ethyl)-6-(4-propionylpiperazin-1-yl)isonicotinamide] | A (a Ki ratio greater than or equal to 10 fold between the Ki in the presence of SAM and the Ki in the presence of MTA) | A* (an IC50 ratio greater than or equal to 10 fold between the IC50 in the HAP1 MTAP-intact cell line and the HAP1 MTAP-deleted cell line) |
